One may read the IC50 as the concentration needed to halve the response being measured. High values mean lower potency, low ones higher potency.

This is an account of results in patent US12195482B1 (Arcus Biosciences, Inc., priority 2022, dated 2025).

One assay concerns the target T1, Axl (Homo sapiens, UniProt P30530).
T1 sequence (P30530 26-894): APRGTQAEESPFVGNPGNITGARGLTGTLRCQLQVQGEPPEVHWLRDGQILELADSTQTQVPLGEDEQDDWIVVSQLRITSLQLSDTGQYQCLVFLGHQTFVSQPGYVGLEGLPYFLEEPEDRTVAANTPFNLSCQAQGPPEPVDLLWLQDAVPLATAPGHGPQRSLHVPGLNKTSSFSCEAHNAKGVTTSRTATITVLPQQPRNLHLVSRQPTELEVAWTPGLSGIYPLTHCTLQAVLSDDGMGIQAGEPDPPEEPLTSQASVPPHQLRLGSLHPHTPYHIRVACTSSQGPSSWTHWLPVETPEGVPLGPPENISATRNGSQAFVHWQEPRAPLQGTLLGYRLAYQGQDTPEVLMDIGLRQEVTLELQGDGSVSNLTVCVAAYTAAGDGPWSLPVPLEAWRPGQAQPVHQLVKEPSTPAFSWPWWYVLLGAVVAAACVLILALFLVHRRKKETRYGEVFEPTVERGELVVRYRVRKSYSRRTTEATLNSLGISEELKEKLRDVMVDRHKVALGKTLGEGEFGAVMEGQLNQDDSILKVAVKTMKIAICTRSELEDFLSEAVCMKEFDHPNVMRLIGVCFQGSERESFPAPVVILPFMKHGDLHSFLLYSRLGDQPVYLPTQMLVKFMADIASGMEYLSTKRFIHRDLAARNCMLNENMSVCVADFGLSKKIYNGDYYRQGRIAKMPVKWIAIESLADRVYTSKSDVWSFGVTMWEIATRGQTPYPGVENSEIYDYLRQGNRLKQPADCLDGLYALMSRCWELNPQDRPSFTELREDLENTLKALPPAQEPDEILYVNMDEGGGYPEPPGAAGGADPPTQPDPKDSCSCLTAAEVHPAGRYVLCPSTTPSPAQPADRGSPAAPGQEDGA
Kind of assay: Biochemical potency, HTRF KinEASE-TK kinase assay. On the set-up: purchased Invitrogen. The conditions noted are these: 5 nM AXL, 700 μM ATP. How it is done: Measurement of Biochemical Compound Potency of Axl Inhibitors
Purified recombinant human AXL, TYRO3 and MER proteins were purchased from Invitrogen™. 10 nM AXL, 2 nM TYRO3 or MER were incubated with varying concentrations of compounds in 50 mM HEPES, pH 7.4, 10 mM MgCl2, 0.01% BSA, 1 mM DTT and 2% DMSO in a total volume of 20 μl in a 384-well microplate (Corning™ #3640) at RT for 1 h. The AXL, TYRO3 and MER enzymatic reaction was initiated by transferring 10 μl of enzyme and compound mixture into 10 μl of 1.6 μM TK Substrate-biotin (HTRF® KinEASE-TK kit, Cisbio) and 1400 μM ATP pre-incubated in 50 mM HEPES, pH 7.4, 10 mM MgCl2, 0.01% BSA, 1 mM DTT in a 384-well microplate (Corning™ #3640) at RT, giving the final reaction conditions: 5 nM AXL, 1 nM TYRO3 or MER, 800 nM TK Substrate-biotin and 700 μM ATP in 50 mM HEPES, pH 7.4, 10 mM MgCl2, 0.01% BSA, 1 mM DTT and 1% DMSO with varying concentrations of compounds. Following 2 h incubation at RT, the AXL, TYRO3 and MER enzymatic reaction was stopped by transfer of 10 μl of reaction into 10 μl of detection mix (400 nM Streptavidin-XL665, 200-fold dilution TK Antibody-Cryptate and detection buffer, HTRF® KinEASE-TK kit, Cisbio) in a white 384-well microplate (Perkin Elmer, OptiPlate 384). After 1 h incubation at RT, the plate was put into a plate reader (Evision) to read at 665/620 nm (acceptor/donor) for HTRF. The value of the DMSO blank (MIN inhibition=100% activity) was used as a negative control. The positive control was established by adding 5 μl of enzyme and DMSO mixture into 10 μl of detection mix followed by addition of 5 μl of TK Substrate-biotin and ATP mixture (MAX inhibition=0% activity). To calculate the percent activity, Equation 1 was used. Ratio665/620 is the value at a given compound concentration: […]
Background: Time-resolved FRET reads energy transfer from a long-lived donor to a nearby acceptor.

The target of another assay is T2, p-AXL (Homo sapiens, UniProt P30530).
T2 construct: expressed in transfected cells; host or cells: HEK293T
T2 sequence (P30530 26-894): T1 sequence (P30530 26-894)
Nature of the assay: Axl phosphorylation inhibition ELISA in HEK293T cells transfected with NanoLuc-tagged AXL. The conditions noted are these: 1 h compound incubation, media (OptiMEM). The format is cell-based. How it is done:
[formula] Measurement of Axl Phosphorylation Inhibition
The dose-response assays were performed in S-Bio PrimeSurface® 3D culture: Ultra-low Attachment Plates: 384 well, U bottom (#MS-9384UZ) containing 400 nL of 22 serial 2-fold compound dilutions using Bravo and Echo. ELISA assay was performed on Pierce™ streptavidin coated high capacity 384-well white plates (Thermofisher Cat #15505). The plates were coated overnight at 4° C. with 50 μl/well of biotinlyated phospho-tyrosine mouse mAb (Cell Signaling Technology, 9417s).
HEK293T cells were grown in DMEM containing 10% FBS, 1% Pen/Strep, 1% G-Max. A day before the assay, cells were transiently transfected with 6.8 μg of NanoLuc-tagged AXL plasmid DNA and 8 μg of carrier DNA using FuGENE® HD Transfection Reagent (Promega) according to manufacturer's instructions. On the day of the assay, transfected cells were harvested and resuspended in OptiMEM. 70,000 cells/well were added to the compounds containing assay plates. After a gentle mix and a short spin, the plates were incubated at 37° C. After 1 h, the cells were lysed followed by a brief centrifugation and 30 min of shaking at 300 rpm. Meanwhile, the antibody coated plates were brought to room temperature and then were washed ten times in PBS with 0.05% Tween 20 (ELISA-wash buffer). 50 μl/well of cell lysate was transferred to the ELISA plates and shaken for 2 hours. After washing again with the ELISA wash buffer, the samples were diluted with 25 μl of PBS. The captured NanoLuc tagged p-AXL was detected using Nano-Glo® Luciferase Assay System (Promega) and manufacturer's instruction. The luminescence signal was measured using Envision plate reader. IC50 values were determined by fitting the data to a standard 4-parameter logistic equation.

With `Cn1ncnc1-c1ccc(-c2n[nH]c3ncc(-c4ccc5c(c4)CC[C@@H](N[C@H]4CCCOC4)CC5)cc23)cc1` [Example 134], the IC50 on Axl and against p-AXL was below 100 nM in each case.

For `Cc1cccnc1-c1nnc(-c2n[nH]c3ncc(-c4ccc5c(c4)CC[C@@H](N4C6COCC4C6)CC5)cc23)o1` [Example 25, 6-[(7S)-2-{3-[5-(3-Methylpyridin-2-yl)-1,3,4-oxadiazol-2-yl]-1H-pyrazolo[3,4-b]pyridin-5-yl}-6,7,8,9-tetrahydro-5H-benzo[7]annulen-7-yl]-3-oxa-6-azabicyclo[3.1.1]heptane], the IC50 on Axl and at p-AXL was below 100 nM each time.

For `Cc1ccc(N2CCCC2=O)c(-c2ccc(-c3n[nH]c4ncc(-c5ccc6c(c5)CC[C@@H](N5C7COCC5C7)CC6)cc34)cc2)n1` [Example 198, 1-[6-Methyl-2-(4-{5-[(7S)-7-{3-oxa-6-azabicyclo[3.1.1]heptan-6-yl}-6,7,8,9-tetrahydro-5H-benzo[7]annulen-2-yl]-1H-pyrazolo[3,4-b]pyridin-3-yl}phenyl)pyridin-3-yl]pyrrolidin-2-one], the figures for the IC50 at Axl and against p-AXL were below 100 nM and 100 to 1000 nM, respectively.

Turning to `Cc1cc(C)c(-c2ccc(-c3n[nH]c4ncc(-c5ccc6c(c5)CC[C@@H](N5C7COCC5C7)CC6)cc34)cc2)cn1` [Example 195, 6-[(7S)-2-{3-[4-(4,6-Dimethylpyridin-3-yl)phenyl]-1H-pyrazolo[3,4-b]pyridin-5-yl}-6,7,8,9-tetrahydro-5H-benzo[7]annulen-7-yl]-3-oxa-6-azabicyclo[3.1.1]heptane], the IC50 is below 100 nM on Axl and 100 to 1000 nM against p-AXL.

As for `c1cnc(-c2ccc(-c3n[nH]c4ncc(-c5ccc6c(c5)CC[C@@H](N5C7COCC5C7)CC6)cc34)cc2)c(C2CCOCC2)c1` [Example 149, 6-[(7S)-2-(3-{4-[3-(Oxan-4-yl)pyridin-2-yl]phenyl}-1H-pyrazolo[3,4-b]pyridin-5-yl)-6,7,8,9-tetrahydro-5H-benzo[7]annulen-7-yl]-3-oxa-6-azabicyclo[3.1.1]heptane], the IC50 at Axl and at p-AXL was below 100 nM in each case.

Consider `Cc1cnc(C)c(-c2ccc(-c3n[nH]c4ncc(-c5ccc6c(c5)CC[C@@H](N5C7COCC5C7)CC6)cc34)cc2)n1` [Example 65, 6-[(7S)-2-{3-[4-(3,6-Dimethylpyrazin-2-yl)phenyl]-1H-pyrazolo[3,4-b]pyridin-5-yl}-6,7,8,9-tetrahydro-5H-benzo[7]annulen-7-yl]-3-oxa-6-azabicyclo[3.1.1]heptane], for which the IC50 against Axl and against p-AXL was below 100 nM in each case.

As to `Cc1cccnc1-c1ccc(-c2n[nH]c3ncc(-c4ccc5c(c4)CC[C@@H](N[C@H]4CCCOC4)CC5)cc23)nc1` [Example 106, (3S)—N-[(7S)-2-(3-{3-Methyl-[2,3′-bipyridin]-6′-yl}-1H-pyrazolo[3,4-b]pyridin-5-yl)-6,7,8,9-tetrahydro-5H-benzo[7]annulen-7-yl]oxan-3-amine], the IC50 on Axl and on p-AXL was below 100 nM each time.

Take `Cc1cc(=O)n(C)nc1-c1ccc(-c2c[nH]c3ncc(-c4ccc5c(c4)CC[C@@H](N4C6COCC4C6)CC5)cc23)cc1` [Example 20, 2,5-Dimethyl-6-(4-{5-[(7S)-7-{3-oxa-6-azabicyclo[3.1.1]heptan-6-yl}-6,7,8,9-tetrahydro-5H-benzo[7]annulen-2-yl]-1H-pyrrolo[2,3-b]pyridin-3-yl}phenyl)-2,3-dihydropyridazin-3-one]: the IC50 against Axl and against p-AXL was below 100 nM throughout.

As for `Cc1cccnc1-c1cccc(-c2c[nH]c3ncc(-c4ccc5c(c4)CC[C@@H](N4C6COCC4C6)CC5)cc23)c1` [Example 82, 6-[(7S)-2-{3-[3-(3-Methylpyridin-2-yl)phenyl]-1H-pyrrolo[2,3-b]pyridin-5-yl}-6,7,8,9-tetrahydro-5H-benzo[7]annulen-7-yl]-3-oxa-6-azabicyclo[3.1.1]heptane], the IC50 at Axl and against p-AXL was below 100 nM throughout.

With `Cc1cnc(C)c(-c2ccc(-c3c[nH]c4ncc(-c5ccc6c(c5)CC[C@@H](N5C7COCC5C7)CC6)cc34)nc2)n1` [Example 69, 6-[(7S)-2-{3-[5-(3,6-Dimethylpyrazin-2-yl)pyridin-2-yl]-1H-pyrrolo[2,3-b]pyridin-5-yl}-6,7,8,9-tetrahydro-5H-benzo[7]annulen-7-yl]-3-oxa 6-azabicyclo[3.1.1]heptane], the IC50 against Axl was below 100 nM; against p-AXL it was 100 to 1000 nM.

For `COCCN1CCc2ccc(-c3cnc4[nH]nc(-c5ccc(-c6ncccc6C)cc5)c4c3)cc2CC1` [Example 15, 3-(2-Methoxyethyl)-7-{3-[4-(3-methylpyridin-2-yl)phenyl]-1H-pyrazolo[3,4-b]pyridin-5-yl}-2,3,4,5-tetrahydro-1H-3-benzazepine], the IC50 against Axl was below 100 nM; against p-AXL, 100 to 1000 nM.

For the compound `Cc1ccc(C#N)nc1-c1ccc(-c2c[nH]c3ncc(-c4ccc5c(c4)CC[C@@H](N4C6COCC4C6)CC5)cc23)cc1` [Example 75, 5-Methyl-6-(4-{5-[(7S)-7-{3-oxa-6-azabicyclo[3.1.1]heptan-6-yl}-6,7,8,9-tetrahydro-5H-benzo[7]annulen-2-yl]-1H-pyrrolo[2,3-b]pyridin-3-yl}phenyl)pyridine-2-carbonitrile], the IC50 against Axl and against p-AXL was below 100 nM in each case.

As for `Cc1cccnc1-c1ccnc(-c2c[nH]c3ncc(-c4ccc5c(c4)CC[C@@H](N4C6COCC4C6)CC5)cc23)c1` [Example 83, 3-Methyl-2′-{5-[(7S)-7-{3-oxa-6-azabicyclo[3.1.1]heptan-6-yl}-6,7,8,9-tetrahydro-5H-benzo[7]annulen-2-yl]-1H-pyrrolo[2,3-b]pyridin-3-yl}-2,4′-bipyridine], the IC50 against Axl and against p-AXL was below 100 nM throughout.
